# From US20090137844A1, “Crystallization process” (Fermion Oy, priority 2005, published 2009)
# Counter-ions that a name gives are not always drawn.
# Tests used:
# Assay type in all cases: physicochemical
# [1] = Solubility in alcoholic solvents
# [2] = Crystal particle size by light microscope (visually observed); conditions: for Size of particle (light microscope), 90% of crystals below: procedure of Example 1
# Description: Particle size distribution is analyzed visually using light microscope or by laser diffraction using the following method: In table 1 below there are the results of experiments using different addition temperatures. Procedure is the same as above.
# [3] = Volumetric particle size distribution by laser diffraction (Coulter LS230); conditions: for Particle size distribution (laser diffraction) LDP 10 / Particle size distribution (laser diffraction) LDP 50 / Particle size distribution (laser diffraction) LDP 90: procedure of Example 1
# Description: Particle size distribution is analyzed visually using light microscope or by laser diffraction using the following method: Saturated 2-Propanol: To 250 ml of 2-propanol is added approx 1 g of tamsulosin HCl powder and sonicated at room temperature about 30 min. The mixture is let stand overnight, hereafter it is filtered through […] membrane filter. Sample Preparation About 30 mg of tamsulosin HCl is weighed in a 25 ml decanter. 2-4 drops of saturated 2-propanol is added to the sample and stirred with a glass rod. After that 4 ml of saturated 2-propanol is added and the sample is kept in ultra sound for 30 seconds before measuring volumetric particle size distribution using Coulter LS230, Laser Diffraction Particle Size Analyzer.
# [4] = Example 2: 15% HCl added at 40° C., cooled to 20° C.
# [5] = Example 3: Example 2 repeated, HCl addition temperature 20° C.
smiles,measurement,setting,value
"CCOc1ccccc1OCCNC(C)Cc1ccc(OC)c(S(N)(=O)=O)c1 (centres unmarked) [tamsulosin, 5-[2-[[2-(2-ethoxyphenoxy)ethyl]amino]propyl]-2-methoxybenzene-sulfonamide]",Solubility,[1],poorly soluble
"CCOc1ccccc1OCCNC(C)Cc1ccc(OC)c(S(N)(=O)=O)c1 (centres unmarked) [tamsulosin hydrochloride, 5-[2-[[2-(2-ethoxyphenoxy)ethyl]amino]propyl]-2-methoxybenzene-sulfonamide]","Size of particle (light microscope), 90% of crystals below",[2]; HCl added at 0° C.,90% < 3 μm
same,"Size of particle (light microscope), 90% of crystals below",[2]; HCl added at 10° C.,90% < 5 μm
same,"Size of particle (light microscope), 90% of crystals below",[2]; HCl added at 20° C.,90% < 10 μm
same,"Size of particle (light microscope), 90% of crystals below",[2]; HCl added at 30° C.,90% < 15 μm
same,"Size of particle (light microscope), 90% of crystals below",[2]; HCl added at 40° C.,90% < 30 μm
same,"Size of particle (light microscope), 90% of crystals below",[2]; HCl added at 80° C.,90% < 250 μm
same,Size below which 90% of the crystals are (light microscope),[2]; hydrochloride added at e.g. 80° C.,below 250 micrometers
same,Size below which 90% of the crystals are (light microscope),[2]; hydrochloride added below about 30° C.,below 15 micrometers
same,Crystal size distribution (laser diffraction) LDP 10,[3]; [4],5 μm
same,Crystal size distribution (laser diffraction) LDP 50,[3]; [4],20 μm
same,Crystal size distribution (laser diffraction) LDP 90,[3]; [4],36 μm
same,Crystal size distribution (laser diffraction) LDP 10,[3]; [5],3 μm
same,Crystal size distribution (laser diffraction) LDP 50,[3]; [5],14 μm
same,Crystal size distribution (laser diffraction) LDP 90,[3]; [5],29 μm
same,Particle size distribution (laser diffraction) LDP 10,[3]; HCl added at 0° C.,LDP 10 = 1 μm
same,Particle size distribution (laser diffraction) LDP 50,[3]; HCl added at 0° C.,LDP 50 = 3 μm
same,Particle size distribution (laser diffraction) LDP 90,[3]; HCl added at 0° C.,LDP 90 = 12 μm
same,Particle size distribution (laser diffraction) LDP 10,[3]; HCl added at 10° C.,LDP 10 = 1 μm
same,Particle size distribution (laser diffraction) LDP 50,[3]; HCl added at 10° C.,LDP 50 = 5 μm
same,Particle size distribution (laser diffraction) LDP 90,[3]; HCl added at 10° C.,LDP 90 = 10 μm
same,Particle size distribution (laser diffraction) LDP 10,[3]; HCl added at 20° C.,LDP 10 = 2 μm
same,Particle size distribution (laser diffraction) LDP 50,[3]; HCl added at 20° C.,LDP 50 = 7 μm
same,Particle size distribution (laser diffraction) LDP 90,[3]; HCl added at 20° C.,LDP 90 = 17 μm
same,Particle size distribution (laser diffraction) LDP 10,[3]; HCl added at 30° C.,LDP 10 = 4 μm
same,Particle size distribution (laser diffraction) LDP 50,[3]; HCl added at 30° C.,LDP 50 = 15 μm
same,Particle size distribution (laser diffraction) LDP 90,[3]; HCl added at 30° C.,LDP 90 = 29 μm
same,Particle size distribution (laser diffraction) LDP 10,[3]; HCl added at 40° C.,LDP 10 = 9 μm
same,Particle size distribution (laser diffraction) LDP 50,[3]; HCl added at 40° C.,LDP 50 = 29 μm
same,Particle size distribution (laser diffraction) LDP 90,[3]; HCl added at 40° C.,LDP 90 = 55 μm
same,Size below which 90% of the crystals are (laser diffraction),[3]; addition temperature about 20° C.,below 20 micrometers
same,Size below which 90% of the crystals are (laser diffraction),[3]; addition temperature about 40° C.,below 60 micrometers
